Like-named read-outs stand apart in the source and are kept apart here.
Legend:
Type in all cases: cell-based
[1] = tested on: RXF 393; assay: NCI in vitro SRB assay, Renal Cancer; conditions: for CC50 / GI50: Homo sapiens
Protocol: (§1) An in vitro assay which tested the ability of N,N,-diethyl-8,8-dipropyl-2-azaspiro[4,5]decane-2-propanamine dimaleate (Compound 1) to inhibit the growth of known cancer cell lines was performed by the National Cancer Institute in accordance with standard procedures. See: Lin, Z. X., Hoult, J. R., and Raman, A. Sulphorhodamine B assay for measuring proliferation of a pigmented melanocyte cell line and its application to the evaluation of crude drugs used in the treatment of vitiligo. J Ethnopharmacol. 66: 141-150, 1999. Briefly, selected tumor cell lines were cultured in media containing five different concentrations of Compound 1. After 48 hours of continuous exposure, a sulforhodamine B (SRB) assay was used to estimate cell viability or growth via optical measurements.
(§2) From the measurements, the following values were determined: 1) the concentration of Compound 1 at which a tumor cell growth inhibition of 50% (relative to control) occurs (GI50), 2) the concentration of Compound 1 at which no growth occurs (total growth inhibition, TGI), and 3) the concentration of Compound 1 at which the […] (LC 50). […] FIG. 6 illustrates, graphically, tumor cell growth as a function of Compound 1 concentration of the scanned tumor cell lines.

[2] = tested on: A498; assay: NCI in vitro SRB assay, Renal Cancer; conditions: for GI50: Homo sapiens
Protocol: as §1, §2

[3] = tested on: SN12C; assay: NCI in vitro SRB assay, Renal Cancer; conditions: for GI50 / CC50: Homo sapiens
Protocol: as §1, §2

[4] = tested on: UO-31; assay: NCI in vitro SRB assay, Renal Cancer; conditions: for CC50 / GI50: Homo sapiens
Protocol: as §1, §2

[5] = tested on: SK-MEL-28; assay: NCI in vitro SRB assay, Melanoma; conditions: for CC50 / GI50: Homo sapiens
Protocol: as §1, §2

[6] = tested on: SK-MEL-2; assay: NCI in vitro SRB assay, Melanoma; conditions: for CC50 / GI50: Homo sapiens
Protocol: as §1, §2

[7] = tested on: LOX IMVI; assay: NCI in vitro SRB assay, Melanoma; conditions: for GI50 / CC50: Homo sapiens
Protocol: as §1, §2

[8] = tested on: UACC-257; assay: NCI in vitro SRB assay, Melanoma; conditions: for CC50 / GI50: Homo sapiens
Protocol: as §1, §2

[9] = RXF 393, Log10 conc -4.0 Moles/L
[10] = RXF 393, Log10 conc -5.0 Moles/L
[11] = RXF 393, Log10 conc -6.0 Moles/L
[12] = RXF 393, Log10 conc -7.0 Moles/L
[13] = RXF 393, Log10 conc -8.0 Moles/L
[14] = read-out: Log10 GI50 (converted)
[15] = read-out: Log10 LC50 (converted)
[16] = SK-MEL-28, Log10 conc -4.0 Moles/L
[17] = SK-MEL-28, Log10 conc -5.0 Moles/L
[18] = SK-MEL-28, Log10 conc -6.0 Moles/L
[19] = SK-MEL-28, Log10 conc -7.0 Moles/L
[20] = SK-MEL-28, Log10 conc -8.0 Moles/L
[21] = SK-MEL-2, Log10 conc -4.0 Moles/L
[22] = SK-MEL-2, Log10 conc -5.0 Moles/L
[23] = SK-MEL-2, Log10 conc -6.0 Moles/L
[24] = SK-MEL-2, Log10 conc -7.0 Moles/L
[25] = SK-MEL-2, Log10 conc -8.0 Moles/L
[26] = UACC-257, Log10 conc -4.0 Moles/L
[27] = UACC-257, Log10 conc -5.0 Moles/L
[28] = UACC-257, Log10 conc -6.0 Moles/L
[29] = UACC-257, Log10 conc -7.0 Moles/L
[30] = UACC-257, Log10 conc -8.0 Moles/L

CCCC1(CCC)CCC2(CCN(CCCN(CC)CC)C2)CC1.O=C(O)/C=C\C(=O)O.O=C(O)/C=C\C(=O)O [Compound 1, N,N,-diethyl-8,8-dipropyl-2-azaspiro[4,5]decane-2-propanamine dimaleate]
CC50 ([1]; RXF 393, read-out: LC50): 7.1 µM
CC50 ([1]; RXF 393, read-out: Log10 LC50 (converted)): 7.08 µM
GI50 ([1]; RXF 393, read-out: GI50): 1.64 µM
GI50 ([1]; RXF 393, read-out: Log10 GI50 (converted)): 1.62 µM
Log10 TGI ([1]; RXF 393): −5.47
TGI ([1]; RXF 393): 3.41 µM
Mean Optical Densities [1, 9]: 0.083
Percent Growth [1, 9]: −74%
Mean Optical Densities [1, 10]: 0.086
Percent Growth [1, 10]: −73%
Mean Optical Densities [1, 11]: 0.943
Percent Growth [1, 11]: 84%
Mean Optical Densities [1, 12]: 1.028
Percent Growth [1, 12]: 95%
Mean Optical Densities [1, 13]: 1.017
Percent Growth [1, 13]: 94%
Log10 TGI [2]: −5.50
TGI [2]: 3.13 µM
GI50 ([2]; read-out: GI50): 1.68 µM
GI50 [2, 14]: 1.7 µM
Mean Optical Densities ([2]; Log10 conc -4.0 Moles/L): 0.157
Percent Growth ([2]; Log10 conc -4.0 Moles/L): −85%
Mean Optical Densities ([2]; Log10 conc -5.0 Moles/L): 0.065
Percent Growth ([2]; Log10 conc -5.0 Moles/L): −94%
Mean Optical Densities ([2]; Log10 conc -6.0 Moles/L): 1.336
Percent Growth ([2]; Log10 conc -6.0 Moles/L): 92%
Mean Optical Densities ([2]; Log10 conc -7.0 Moles/L): 1.327
Percent Growth ([2]; Log10 conc -7.0 Moles/L): 89%
Mean Optical Densities ([2]; Log10 conc -8.0 Moles/L): 1.297
Percent Growth ([2]; Log10 conc -8.0 Moles/L): 79%
Log10 TGI [3]: −5.55
TGI [3]: 2.82 µM
GI50 ([3]; read-out: GI50): 1.29 µM
CC50 ([3]; read-out: LC50): 6.17 µM
GI50 [3, 14]: 1.29 µM
CC50 [3, 15]: 6.17 µM
Mean Optical Densities ([3]; Log10 conc -4.0 Moles/L): 0.036
Percent Growth ([3]; Log10 conc -4.0 Moles/L): −90%
Mean Optical Densities ([3]; Log10 conc -5.0 Moles/L): 0.069
Percent Growth ([3]; Log10 conc -5.0 Moles/L): −81%
Mean Optical Densities ([3]; Log10 conc -6.0 Moles/L): 0.668
Percent Growth ([3]; Log10 conc -6.0 Moles/L): 66%
Mean Optical Densities ([3]; Log10 conc -7.0 Moles/L): 0.701
Percent Growth ([3]; Log10 conc -7.0 Moles/L): 73%
Mean Optical Densities ([3]; Log10 conc -8.0 Moles/L): 0.717
Percent Growth ([3]; Log10 conc -8.0 Moles/L): 76%
CC50 ([4]; UO-31, read-out: LC50): 5.03 µM
CC50 ([4]; UO-31, read-out: Log10 LC50 (converted)): 5.01 µM
GI50 ([4]; UO-31, read-out: GI50): 1.2 µM
GI50 ([4]; UO-31, read-out: Log10 GI50 (converted)): 1.2 µM
Log10 TGI ([4]; UO-31): −5.61
TGI ([4]; UO-31): 2.45 µM
Mean Optical Densities ([4]; UO-31, Log10 conc -4.0 Moles/L): 0.039
Percent Growth ([4]; UO-31, Log10 conc -4.0 Moles/L): −87%
Mean Optical Densities ([4]; UO-31, Log10 conc -5.0 Moles/L): 0.006
Percent Growth ([4]; UO-31, Log10 conc -5.0 Moles/L): −98%
Mean Optical Densities ([4]; UO-31, Log10 conc -6.0 Moles/L): 0.833
Percent Growth ([4]; UO-31, Log10 conc -6.0 Moles/L): 63%
Mean Optical Densities ([4]; UO-31, Log10 conc -7.0 Moles/L): 1.056
Percent Growth ([4]; UO-31, Log10 conc -7.0 Moles/L): 89%
Mean Optical Densities ([4]; UO-31, Log10 conc -8.0 Moles/L): 1.076
Percent Growth ([4]; UO-31, Log10 conc -8.0 Moles/L): 91%
CC50 ([5]; SK-MEL-28, read-out: LC50): 4.86 µM
CC50 ([5]; SK-MEL-28, read-out: Log10 LC50 (converted)): 4.9 µM
GI50 ([5]; SK-MEL-28, read-out: GI50): 0.561 µM
GI50 ([5]; SK-MEL-28, read-out: Log10 GI50 (converted)): 0.562 µM
Log10 TGI ([5]; SK-MEL-28): −5.72
TGI ([5]; SK-MEL-28): 1.89 µM
Mean Optical Densities [5, 16]: 0.026
Percent Growth [5, 16]: −95%
Mean Optical Densities [5, 17]: 0.061
Percent Growth [5, 17]: −88%
Mean Optical Densities [5, 18]: 0.846
Percent Growth [5, 18]: 34%
Mean Optical Densities [5, 19]: 1.473
Percent Growth [5, 19]: 98%
Mean Optical Densities [5, 20]: 1.301
Percent Growth [5, 20]: 80%
CC50 ([6]; SK-MEL-2, read-out: LC50): > 100 µM
CC50 ([6]; SK-MEL-2, read-out: Log10 LC50 (converted)): > 100 µM
GI50 ([6]; SK-MEL-2, read-out: GI50): 3.45 µM
GI50 ([6]; SK-MEL-2, read-out: Log10 GI50 (converted)): 3.47 µM
Log10 TGI ([6]; SK-MEL-2): >−4.00
TGI ([6]; SK-MEL-2): >100 µM
Mean Optical Densities [6, 21]: 0.168
Percent Growth [6, 21]: 7%
Mean Optical Densities [6, 22]: 0.167
Percent Growth [6, 22]: 7%
Mean Optical Densities [6, 23]: 1.199
Percent Growth [6, 23]: 100%
Mean Optical Densities [6, 24]: 1.191
Percent Growth [6, 24]: 99%
Mean Optical Densities [6, 25]: 1.191
Percent Growth [6, 25]: 99%
Log10 TGI [7]: −5.74
TGI [7]: 1.84 µM
GI50 ([7]; read-out: GI50): 0.515 µM
CC50 ([7]; read-out: LC50): 4.29 µM
GI50 [7, 14]: 0.513 µM
CC50 [7, 15]: 4.27 µM
Mean Optical Densities ([7]; Log10 conc -4.0 Moles/L): −0.030
Percent Growth ([7]; Log10 conc -4.0 Moles/L): −100%
Mean Optical Densities ([7]; Log10 conc -5.0 Moles/L): −0.044
Percent Growth ([7]; Log10 conc -5.0 Moles/L): −100%
Mean Optical Densities ([7]; Log10 conc -6.0 Moles/L): 0.595
Percent Growth ([7]; Log10 conc -6.0 Moles/L): 36%
Mean Optical Densities ([7]; Log10 conc -7.0 Moles/L): 1.037
Percent Growth ([7]; Log10 conc -7.0 Moles/L): 85%
Mean Optical Densities ([7]; Log10 conc -8.0 Moles/L): 1.072
Percent Growth ([7]; Log10 conc -8.0 Moles/L): 89%
CC50 ([8]; UACC-257, read-out: LC50): 8.74 µM
CC50 ([8]; UACC-257, read-out: Log10 LC50 (converted)): 8.71 µM
GI50 ([8]; UACC-257, read-out: GI50): 1.74 µM
GI50 ([8]; UACC-257, read-out: Log10 GI50 (converted)): 1.74 µM
Log10 TGI ([8]; UACC-257): −5.41
TGI ([8]; UACC-257): 3.9 µM
Mean Optical Densities [8, 26]: 0.113
Percent Growth [8, 26]: −75%
Mean Optical Densities [8, 27]: 0.190
Percent Growth [8, 27]: −58%
Mean Optical Densities [8, 28]: 1.302
Percent Growth [8, 28]: 84%
Mean Optical Densities [8, 29]: 1.427
Percent Growth [8, 29]: 97%
Mean Optical Densities [8, 30]: 1.403
Percent Growth [8, 30]: 94%
